Laboratory results: PMC8915576 (Frontiers in Pain Research, 2021)
Where two headings read alike, the source gives them in different places.

Key:
[1] = test system: MOPr-VACC inhibition in dorsal root ganglia (DRG) neurons; assay: cells; assay type: cell-based, mouse; details: for IC50: read-out: IC50, VACC inhibition; for Emax: read-out: Emax (% inhibition), VACC inhibition
[2] = molecular target: MOPr (mMOR-Venus) / Gαi-luciferase (Mus musculus, UniProt P42866); assay: cell-based; assay type: cell-based
[3] = molecular target: MOPr (mMOR-Venus) / βarr2-luciferase (Mus musculus, UniProt P42866); assay: cell-based
[4] = molecular target: MOPr (mMOR-Venus) / βarr1-luciferase (Mus musculus, UniProt P42866); assay: cell-based; assay type: cell-based
MOPr = molecular target: T1, MOPr (Mus musculus, UniProt P42866); assay type: cell-based
T1 construct: expressed in transfected cells; host or cells: HEK293

[5] = molecular target: FAP-tagged MOPr in HEK cells (Homo sapiens, UniProt P35372); assay: cell-based; assay type: cell-based; details: for Emax: Emax (% background), internalization
[6] = test system: MOPr-VACC inhibition in DRG neurons; assay type: cell-based, mouse
VACCs in DRG neurons = assay: Voltage-dependent component of agonist-VACC inhibition (high-voltage pre-pulse); assay type: cell-based, mouse; details: normalized to each agonist's inhibition
[7] = molecular target: T2, MOR (recombinant human receptor) (Homo sapiens, UniProt P35372); assay type: binding; details: calculated as t1/2 = 0.69/koff
T2 construct: host or cells: CHO-K1 membranes

[8] = test system: VACCs in DRG neurons lacking βarr1; assay: VACC inhibition in DRG neurons of βarr1-knockout mice; assay type: cell-based, mouse; details: βarr1-knockout vs WT DRG neurons; NKTR-181 30 μM
[9] = test system: carrageenan-induced thermal hyperalgesia; assay: Thermal withdrawal thresholds (Hargreaves) after i.pl. carrageenan; assay type: in vivo, mouse
thermal nociception = assay: Thermal withdrawal thresholds (Hargreaves) after i.pl. vehicle; assay type: in vivo, mouse; details: 3 mg/kg i.pl., mice
drug preference = assay: Conditioned place preference in pain-naive mice; assay type: in vivo, mouse
[10] = test system: carrageenan-induced place aversion; assay: Carrageenan-induced conditioned place aversion; assay type: in vivo, mouse; details: 1 mg/kg i.pl., male mice
drug-seeking behavior = assay: Intravenous self-administration (IVSA), FR10 schedule; assay type: in vivo, Sprague–Dawley rats; details: for number of reinforcers obtained vs saline: FR10, rats
[11] = molecular target: Mu opioid receptor (MOPr) of the competitive binding assays (UniProt P42866)
[12] = molecular target: T3, mMOR-Venus (mu opioid receptor, Venus-tagged) (mouse (from the label mMOR), UniProt P42866 1-398); assay: FRET or BRET; live HEK293 cells co-transfected with mMOR-Venus (acceptor) and Renilla Luciferase8-tagged β-arrestin-1, β-arrestin-2 or Gαi (donor; Gαi with untagged Gβγ fusion); agonist added at 0 nM-100 μM (DAMGO, NKTR-181, oxycodone, morphine, fentanyl); coelenterazine h 4.5 μM; 30°C; netBRET as percent of the maximum DAMGO response, four-parameter fit; details: partners not purified
T3 construct: mu opioid receptor (MOPr), printed as mMOR; BRET acceptor; 'm' in mMOR is read as mouse; also called MOPr-venus; MOPr; source: HEK293, transfected (FuGENE 6), in live cells
T3 sequence (P42866 whole entry, the tested form may be a part): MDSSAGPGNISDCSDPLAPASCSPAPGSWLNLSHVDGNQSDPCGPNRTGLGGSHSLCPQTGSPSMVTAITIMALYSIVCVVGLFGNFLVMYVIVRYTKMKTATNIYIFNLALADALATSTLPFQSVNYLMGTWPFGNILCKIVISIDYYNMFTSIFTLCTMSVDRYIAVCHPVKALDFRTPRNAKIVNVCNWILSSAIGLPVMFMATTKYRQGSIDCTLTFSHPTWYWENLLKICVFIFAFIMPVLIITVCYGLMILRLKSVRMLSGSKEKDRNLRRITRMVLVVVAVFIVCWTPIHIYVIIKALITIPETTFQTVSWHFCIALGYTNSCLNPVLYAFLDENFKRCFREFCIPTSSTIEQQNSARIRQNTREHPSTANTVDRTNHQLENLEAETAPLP

Sequence of MOPr (mMOR-Venus) / βarr2-luciferase (P32121 whole entry): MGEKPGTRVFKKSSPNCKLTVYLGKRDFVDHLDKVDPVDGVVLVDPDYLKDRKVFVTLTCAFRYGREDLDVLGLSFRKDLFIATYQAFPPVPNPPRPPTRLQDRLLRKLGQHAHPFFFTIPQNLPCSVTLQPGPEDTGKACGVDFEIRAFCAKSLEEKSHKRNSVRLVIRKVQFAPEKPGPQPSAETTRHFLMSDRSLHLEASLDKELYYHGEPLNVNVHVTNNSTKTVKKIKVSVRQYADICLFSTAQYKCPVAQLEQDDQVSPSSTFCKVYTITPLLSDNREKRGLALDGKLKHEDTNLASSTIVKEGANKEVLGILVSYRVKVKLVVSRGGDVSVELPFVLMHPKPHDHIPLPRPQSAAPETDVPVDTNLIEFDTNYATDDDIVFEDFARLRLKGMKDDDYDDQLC
Sequence of MOPr (mMOR-Venus) / βarr2-luciferase (P42866 whole entry): as the sequence (P42866 whole entry, the tested form may be a part) above
Sequence of FAP-tagged MOPr in HEK cells (P35372 whole entry): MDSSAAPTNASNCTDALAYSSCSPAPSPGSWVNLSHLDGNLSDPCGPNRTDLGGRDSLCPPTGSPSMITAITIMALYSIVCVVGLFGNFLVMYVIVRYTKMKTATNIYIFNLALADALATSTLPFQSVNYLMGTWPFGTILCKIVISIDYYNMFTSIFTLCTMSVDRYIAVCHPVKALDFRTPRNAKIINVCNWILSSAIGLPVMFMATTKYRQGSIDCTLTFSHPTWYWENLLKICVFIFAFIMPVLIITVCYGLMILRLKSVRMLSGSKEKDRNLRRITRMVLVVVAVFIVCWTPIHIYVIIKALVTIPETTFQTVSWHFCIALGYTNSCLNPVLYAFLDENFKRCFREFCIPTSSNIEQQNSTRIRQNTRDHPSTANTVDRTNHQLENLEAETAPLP
T1 sequence (P42866 whole entry): as the sequence (P42866 whole entry, the tested form may be a part) above
Sequence of MOPr (mMOR-Venus) / βarr1-luciferase (P42866 whole entry, one chain of several): as the sequence (P42866 whole entry, the tested form may be a part) above
Sequence of MOPr (mMOR-Venus) / Gαi-luciferase (P63096 whole entry): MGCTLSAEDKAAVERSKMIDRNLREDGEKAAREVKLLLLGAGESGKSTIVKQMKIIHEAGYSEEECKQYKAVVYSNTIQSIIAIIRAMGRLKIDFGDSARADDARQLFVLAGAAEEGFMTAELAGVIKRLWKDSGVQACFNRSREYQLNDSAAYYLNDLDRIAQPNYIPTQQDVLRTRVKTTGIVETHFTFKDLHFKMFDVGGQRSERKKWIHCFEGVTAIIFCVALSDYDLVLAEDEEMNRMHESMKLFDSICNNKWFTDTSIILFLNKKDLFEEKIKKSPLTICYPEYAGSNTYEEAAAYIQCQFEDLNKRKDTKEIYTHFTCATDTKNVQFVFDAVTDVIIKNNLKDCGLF
Sequence of MOPr (mMOR-Venus) / Gαi-luciferase (P42866 whole entry): as the sequence (P42866 whole entry, the tested form may be a part) above
Sequence of MOPr (mMOR-Venus) / Gαi-luciferase (P59768 whole entry, further chain): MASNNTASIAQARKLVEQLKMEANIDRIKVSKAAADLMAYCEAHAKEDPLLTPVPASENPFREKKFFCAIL
Sequence of MOPr (mMOR-Venus) / Gαi-luciferase (P62873 whole entry, further chain): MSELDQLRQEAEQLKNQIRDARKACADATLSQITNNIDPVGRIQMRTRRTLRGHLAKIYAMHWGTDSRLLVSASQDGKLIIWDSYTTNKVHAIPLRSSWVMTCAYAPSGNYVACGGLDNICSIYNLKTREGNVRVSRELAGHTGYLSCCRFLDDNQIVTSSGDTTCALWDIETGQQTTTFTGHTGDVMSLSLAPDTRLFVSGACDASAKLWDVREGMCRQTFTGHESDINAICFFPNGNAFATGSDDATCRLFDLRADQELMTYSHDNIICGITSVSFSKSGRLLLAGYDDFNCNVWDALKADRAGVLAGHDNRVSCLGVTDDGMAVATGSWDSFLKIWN
Sequence of Mu opioid receptor (MOPr) of the competitive binding assays (P42866 whole entry, the tested form may be a part): as the sequence (P42866 whole entry, the tested form may be a part) above
T2 sequence (P35372 whole entry): as the sequence (P35372 whole entry) above

## C[C@@H](NC(=O)[C@@H](N)Cc1ccc(O)cc1)C(=O)NCC(=O)N(C)[C@@H](Cc1ccccc1)C(=O)NCCO [DAMGO, [D-Ala^2, N-MePhe^4, Gly-ol]-enkephalin]
[1]
  Emax (% inhibition), VACC inhibition: 41 ± 4 % inhibition
  IC50: 228 nM
[2]
  σ (transduction coefficient), Gαi recruitment: 0
[3]
  σ (transduction coefficient), β-arr2 recruitment: 0
[4]
  σ (transduction coefficient), β-arr1 recruitment: 0
MOPr
  Bias factor Gαi vs βarr1: Unbiased
  Bias factor Gαi vs βarr2: Unbiased
  Bias factor βarr1 vs βarr2: Unbiased
[5]; HEK293, read-out: 30 min
  Emax: 78 ± 6%
[5]; HEK293, read-out: 60 min
  Emax: 72 ± 7%
[6]
  rapid desensitization (loss of VACC inhibition): greater desensitization than NKTR-181
VACCs in DRG neurons
  voltage-dependent component of VACC inhibition: predominantly inhibit VACCs by a voltage-dependent mechanism

## CN1CC[C@]23c4c5ccc(O)c4O[C@H]2[C@@H](O)C=C[C@H]3[C@H]1C5 [Morphine, morphine]
[1]; Mus musculus, DRG neuron
  Emax: 33 ± 6%
[6]
  rapid desensitization (loss of VACC inhibition): greater desensitization than NKTR-181
VACCs in DRG neurons
  voltage-dependent component of VACC inhibition: predominantly inhibit VACCs by a voltage-dependent mechanism

## COc1ccc2c3c1O[C@H]1C(=O)CC[C@@]4(O)[C@@H](C2)N(C)CC[C@]314 [Oxycodone, oxycodone]
[1]; Mus musculus, DRG neuron
  Emax: 34 ± 10%
  IC50: 1700 nM
[2]
  EC50: 355 nM
  σ (transduction coefficient), Gαi recruitment: 0.006 ± 0.07
[2]; HEK293, read-out: Emax, Gαi recruitment
  Emax: 62.5 ± 0.9%
[3]
  EC50: 100 nM
  σ (transduction coefficient), β-arr2 recruitment: −0.17 ± 0.05
[4]
  EC50: 389 nM
  σ (transduction coefficient), β-arr1 recruitment: 0.07 ± 0.05
[4]; HEK293, read-out: Emax, β-arr1 recruitment
  Emax: 63.9 ± 0.8%
MOPr
  Bias factor Gαi vs βarr1: −0.14 ± 0.07
  Bias factor Gαi vs βarr2: 0.17 ± 0.08
  Bias factor βarr1 vs βarr2: 0.32 ± 0.06
[5]
  MOPr internalization, dose-dependence and comparison: did not result in a dose-dependent effect and could not be curve-fitted at any timepoint
[7]
  dissociation half-life t1/2: 1.25 min
[6]
  rapid desensitization (loss of VACC inhibition): limited desensitization
VACCs in DRG neurons
  voltage-dependent component of VACC inhibition: predominantly inhibit VACCs by a voltage-dependent mechanism
[8]
  requirement of βarr1 for full VACC inhibition: require βarr1 to obtain full VACC inhibition
[9]; 1 mg/kg i.pl., mice
  reversal of carrageenan-induced hyperalgesia: did not reverse carrageenan-induced hyperalgesia
[9]; 3 mg/kg i.pl., mice
  thermal withdrawal thresholds following i.pl. carrageenan: increased withdrawal thresholds following i.pl. carrageenan
[9]; antinociception / anti-hyperalgesia, carrageenan model, 10 min was the earliest timepoint measured
  time to reach peak levels of effect: 10 min
[9]; higher dose (oxycodone 3 mg/kg, NKTR-181 100 mg/kg), male vs female mice
  sex difference in anti-hyperalgesia: No sex differences were evident
Thermal nociception
  thermal withdrawal thresholds following i.pl. vehicle: increased withdrawal thresholds following i.pl. vehicle
Drug preference; 1 mg/kg i.pl.
  conditioned place preference: did not produce a place preference in either male or female mice
Drug preference; 3 mg/kg i.pl.
  conditioned place preference: produced a place preference in both sexes
[10]
  carrageenan-induced place aversion: prevented place aversion
drug-seeking behavior; 0.1 mg/kg/infusion
  number of reinforcers obtained vs saline: no difference
drug-seeking behavior; 0.01 and 0.032 mg/kg/infusion
  number of reinforcers obtained vs saline: higher
drug-seeking behavior; across the three doses of each drug, rats
  total amount of drug infused over the hour-long session: increase in the total amount of drug infused across all doses

## [D-Ala^2, N-MePhe^4, Gly-ol]-enkephalin (peptide)
[11]
  Emax (% inhibition) of VACCs in cultured adult mouse DRG neurons, whole-cell patch clamp: 41 % inhibition
  IC50 of inhibition of voltage-activated calcium channel currents (VACCs) in cultured adult mouse DRG neurons, whole-cell patch clamp: 228 nM

B1: β-arrestin-1-Renilla Luciferase8 (natural protein, UniProt P49407 1-418, looked up)
chain: MGDKGTRVFKKASPNGKLTVYLGKRDFVDHIDLVDPVDGVVLVDPEYLKERRVYVTLTCAFRYGREDLDVLGLTFRKDLFVANVQSFPPAPEDKKPLTRLQERLIKKLGEHAYPFTFEIPPNLPCSVTLQPGPEDTGKACGVDYEVKAFCAENLEEKIHKRNSVRLVIRKVQYAPERPGPQPTAETTRQFLMSDKPLHLEASLDKEIYYHGEPISVNVHVTNNTNKTVKKIKISVRQYADICLFNTAQYKCPVAMEEADDTVAPSSTFCKVYTLTPFLANNREKRGLALDGKLKHEDTNLASSTLLREGANREILGIIVSYKVKVKLVVSRGGLLGDLASSDVAVELPFTLMHPKPKEEPPHREVPENETPVDTNLIELDTNDDDIVFEDFARQRLKGMKDDKEEEEDGTGSPQLNNR
notes: β-arrestin-1; BRET donor; also called βarr1; β-arr1; source: HEK293, transfected (FuGENE 6), in live cells
[12]
  LogEC50 of the agonist DAMGO for the recruitment: -6.94 ± 0.09 log M
  LogEC50 of the agonist NKTR-181 for the recruitment: -6.45 ± 0.12 log M
  LogEC50 of the agonist fentanyl for the recruitment: -8 ± 0.12 log M
  LogEC50 of the agonist morphine for the recruitment: -6.3 ± 0.18 log M
  LogEC50 of the agonist oxycodone for the recruitment: -6.41 ± 0.12 log M
